Test results published in patent US10640507B2, “PBD antibacterial agents” (KING'S COLLEGE LONDON, priority 2015, dated 2020).
pIC50: −log10 of the molar value. Converted amounts (≈) assume the structure as drawn. Read-outs that look alike come from different tables or passages of the source.

Experiments:
Type in all cases: cell-based
P. aeruginosa PA01 = assay: General MIC protocol, Gram negative; details: Pseudomonas aeruginosa
Description: (§1) General Minimum Inhibitory Concentration (MIC) Protocol
(§2) 1. Grow up cultures of bacterial strains to be tested overnight.
(§3) 2. Dilute down overnight cultures to concentration of 1×10^6 bacteria/ml (OD0.01) in Tryptic soy broth (TSB).
(§4) 3. Add 100 μl of TSB media to column 2-column 12 in 96 well plate (keeping column 1 clear).
(§5) 4. Make up compound to a concentration of 64 μg/ml in water (or alternatively to twice the chosen maximum concentration to be tested).
(§6) 5. Add 100 μl of antibiotic solution to the 1st and 2nd columns.
(§7) 6. Using a multichannel pipette take 100 μl from the 2nd column wells and pipette into 3rd column wells and repeat down the 96 well plate (remembering to include controls i.e. uninfected media and media with no antibiotic).
(§8) 7. To each well (except uninfected control row H) add 100 μl of bacterially infected media at a concentration of 1×10^6/ml.
(§9) 8. This dilutes down the concentration of the antibiotic by half (top dose is therefore 32 μg/ml in column 1) and also gives you a starting bacterial concentration of 5×10^5/ml.
(§10) 9. Wrap plate with parafilm to prevent evaporation.
(§11) 10. Leave at desired temperature (37° C. unless specified elsewhere) for 20 hours.
(§12) 11. Next day check plates for growth and measure optical density (i.e. absorbance) at a wavelength of 600 nm (OD600).
(§13) An example of such a plate is shown in FIG. 1 where column A represents wells that receive the top dose 100 μl; column B represents wells that receive the top dose 100 μl+100 μl TSB; and column C represents wells that receive 100 μl TSB. Row H which is marked by a box labelled D represents a blank where the cells receive no bacteria.

K. pneumonia NCTC 13438 = assay: General MIC protocol, Gram negative; details: Klebsiella pneumoniae, NCTC13438; K. pneumonia NCTC 13438; read-out: MIC
Description: as §1, §2, §3, §4, §5, §6, §7, §8, §9, §10, §11, §12, §13

K. pneumonia NCTC 13439 = assay: General MIC protocol, Gram negative; details: Klebsiella pneumoniae, NCTC13439; K. pneumonia NCTC 13439; read-out: MIC
Description: as §1, §2, §3, §4, §5, §6, §7, §8, §9, §10, §11, §12, §13

K. pneumonia MGH 78578 = assay: General MIC protocol, Gram negative; details: Klebsiella pneumoniae, MGH78578; K. pneumonia MGH 78578; read-out: MIC
Description: as §1, §2, §3, §4, §5, §6, §7, §8, §9, §10, §11, §12, §13

K. pneumonia KP16 = assay: General MIC protocol, Gram negative; details: Klebsiella pneumoniae; K. pneumonia KP16; read-out: MIC
Description: as §1, §2, §3, §4, §5, §6, §7, §8, §9, §10, §11, §12, §13

K. pneumonia NCTC 13443 = assay: General MIC protocol, Gram negative; details: Klebsiella pneumoniae, NCTC13443; K. pneumonia NCTC 13443; read-out: MIC
Description: as §1, §2, §3, §4, §5, §6, §7, §8, §9, §10, §11, §12, §13

K. pneumonia NCTC 51851 = assay: General MIC protocol, Gram negative; details: Klebsiella pneumoniae, NCTC51851; K. pneumonia NCTC 51851; read-out: MIC
Description: as §1, §2, §3, §4, §5, §6, §7, §8, §9, §10, §11, §12, §13

Psueudomonas GH12 = assay: General MIC protocol, Gram negative; details: Pseudomonas
Description: as §1, §2, §3, §4, §5, §6, §7, §8, §9, §10, §11, §12, §13
The activity of the compound designated PP-A148 was tested against an extended panel of Klebsiella and Pseudomonas Gram-negative bacterial strains that have proven drug resistant difficult to treat. […] The minimum inhibitory concentration (MIC) was measured using the general MIC protocol given above.

Klebsiella KP 342 = assay: General MIC protocol, Gram negative; details: KP342; Klebsiella KP 342; read-out: MIC
Description: as §1, §2, §3, §4, §5, §6, §7, §8, §9, §10, §11, §12, §13
The minimum inhibitory concentration (MIC) was measured using the general MIC protocol given above.

EMRSA-16 = assay: General MIC protocol, Gram positive panel
Description: as §1, §2, §3, §4, §5, §6, §7, §8, §9, §10, §11, §12, §13

EMRSA-15 = assay: General MIC protocol, Gram positive panel
Description: as §1, §2, §3, §4, §5, §6, §7, §8, §9, §10, §11, §12, §13

[1] = test system: E. faecalis VRE NCTC 12201; assay: General MIC protocol, Gram positive panel
Description: as §1, §2, §3, §4, §5, §6, §7, §8, §9, §10, §11, §12, §13

[2] = test system: E. faecium VRE NCTC 12204; assay: General MIC protocol, Gram positive panel
Description: as §1, §2, §3, §4, §5, §6, §7, §8, §9, §10, §11, §12, §13

E. faecalis VSE NCTC 775 = assay: General MIC protocol, Gram positive panel; details: Enterococcus faecalis, NCTC775; VSE 775
Description: as §1, §2, §3, §4, §5, §6, §7, §8, §9, §10, §11, §12, §13

[3] = test system: methicillin sensitive S. aureus ATTC 9144 (NCTC 6571); assay: General MIC protocol, Gram positive panel; details: Staphylococcus aureus, MSSA / NCTC 6571; MSSA 9144
Description: as §1, §2, §3, §4, §5, §6, §7, §8, §9, §10, §11, §12, §13

A. baumannii AYE = assay: General MIC protocol, Gram negative; details: Acinetobacter baumannii
Description: as §1, §2, §3, §4, §5, §6, §7, §8, §9, §10, §11, §12, §13

K. pneumonia M6 = assay: General MIC protocol, Gram negative; details: Klebsiella pneumoniae; KP-M6
Description: as §1, §2, §3, §4, §5, §6, §7, §8, §9, §10, §11, §12, §13

P. aeruginosa NCTC 13437 = assay: General MIC protocol, Gram negative; details: Pseudomonas aeruginosa, NCTC13437
Description: as §1, §2, §3, §4, §5, §6, §7, §8, §9, §10, §11, §12, §13

A. baumannii NCTC 17978 = assay: General MIC protocol, Gram negative; details: Acinetobacter baumannii, NCTC17978
Description: as §1, §2, §3, §4, §5, §6, §7, §8, §9, §10, §11, §12, §13

K. pneumonia NCTC 13368 = assay: General MIC protocol, Gram negative; details: Klebsiella pneumoniae, NCTC13368
Description: as §1, §2, §3, §4, §5, §6, §7, §8, §9, §10, §11, §12, §13

WI38 (Healthy cell line) = assay: MTT cytotoxicity assay; details: Homo sapiens, WI-38; MTT; 24 h continuous exposure; highest concentration tested 20 μM; read-out: IC50 WI38 (Healthy cell line)
Description: (§14) Two immortalised human cell lines, HeLa and WI38 were used for cytotoxicity screening of the compounds. HeLa is a human cervical cancer cell line and WI38 is a normal healthy cell line. The cell lines were obtained from the American Type Culture Collection. The cell-lines were maintained in monolayer culture in 75 cm2 flasks (TPP, Switzerland) under a humidified 5% CO2 atmosphere at 37° C. The HeLa cell line was maintained in Dulbecco's Modified Eagles Media (DMEM; Invitrogen) supplemented with foetal bovine serum (10% v/v; Invitrogen), L-glutamine (2 mM; Invitrogen), non-essential amino acids (1×; Invitrogen) and Penicillin-Streptomycin (1% v/v, Invitrogen). For WI38, Eagle's Minimum Essential Medium, and Penicillin-Streptomycin (1% v/v, Invitrogen) and foetal bovine serum (10%, nvitrogen) was used. For passaging, cells were washed with phosphate buffered saline [PBS] (GIBCO 14040, Invitrogen, UK), incubated with trypsine (GIBCO 25300, Invitrogen, UK), and re-seeded into fresh medium. For seeding, cells were counted using a Neubauer haemocytometer (Assistant, Germany) by microscopy (Nikon, USA) on a non-adherent suspension of cells that were washed in PBS, trypsinised, centrifuged at 8° C. at 8000 rpm for 5 min and re-suspended in fresh medium.
(§15) The cells were grown in normal cell culture conditions at 37° C. under a 5% CO2 humidified atmosphere using appropriate medium. The cell count was adjusted to 10^5 cells/ml/ and 20,000 cells were added per well. The cells were incubated for 24 hours and 1 μl of the appropriate inhibitor concentrations were to the wells in triplicates. After 24 h of continuous exposure to each compound, the cytotoxicity was determined using the MIT (3-(4,5-Dimethylthiazol-2-yl)-2,5-diphenyltetrazolium bromide) (Lancaster Synthesis Ltd, UK) colorimetric assay. Absorbance was quantified by spectrophotometry at λ=570 nm (Envision Plate Reader, PerkinElmer, USA). IC50 values were calculated by a dose-response analysis using the Prism Graphpad Prism® software. The cytotoxicity results are shown below in Table 12.

[4] = test system: HeLa (Cervical cancer cell line); assay: MTT cytotoxicity assay; details: Homo sapiens, MTT, 24 h continuous exposure, read-out: IC50 HeLa (Cervical cancer cell line)
Description: as §14, §15

Compound C[C@H]1COc2c(N3CCN(C)CC3)c(F)cc3c(=O)c(C(=O)O)cn1c23 [Levofloxacin, levofloxacin] has an MIC (P. aeruginosa PA01; PA01, read-out: MIC) of 4 µg/mL (≈ 11.1 µM), an MIC (K. pneumonia NCTC 13438) greater than 16 µg/mL and an MIC (K. pneumonia NCTC 13439) of 16 µg/mL (≈ 44.3 µM). It also gave an MIC (K. pneumonia MGH 78578) of 1 µg/mL (≈ 2.77 µM), an MIC (K. pneumonia KP16) of 8 to 16 µg/mL (≈ 22.1 to 44.3 µM) and an MIC (K. pneumonia NCTC 13443) greater than 16 µg/mL. It also gave an MIC (K. pneumonia NCTC 51851) greater than 16 µg/mL, an MIC (Psueudomonas GH12) greater than 16 µg/mL and an MIC (Klebsiella KP 342) of 0.5 to 1 µg/mL (≈ 1.38 to 2.77 µM).

Compound CCN(CC)C(=O)c1cc2cc(NC(=O)c3cc(NC(=O)CCCOc4cc5c(cc4OC)C(=O)N4CCC[C@H]4C=N5)cn3C)ccc2o1 [PP-B27, (S)—N-(2-(diethylcarbamoyl)benzofuran-5-yl)-4-(4-((7-methoxy-5-oxo-2,3,5,11a-tetrahydro-1H-benzo[e]pyrrolo[1,2-a][1,4]-diazepin-8-yl)oxy)butanamido)-1-methyl-1H-pyrrole-2-carboxamide] has an MIC (EMRSA-16) of 0.5 µg/mL (≈ 0.748 µM), an MIC (EMRSA-15) of 0.25 µg/mL (≈ 0.374 µM) and an MIC [1] of less than 0.125 µg/mL. For the same compound, the MIC [2] was less than 0.125 µg/mL, the MIC (E. faecalis VSE NCTC 775) was 0.25 µg/mL (≈ 0.374 µM) and the MIC [3] was less than 0.125 µg/mL. It also gave an MIC (P. aeruginosa PA01; PA01, PA01) of 128 µg/mL (≈ 191 µM), an MIC (A. baumannii AYE) of 4 µg/mL (≈ 5.98 µM) and an MIC (K. pneumonia M6) of 8 µg/mL (≈ 12 µM). For the same compound, the MIC (P. aeruginosa NCTC 13437) was 32 µg/mL (≈ 47.9 µM), the MIC (A. baumannii NCTC 17978) was 4 µg/mL (≈ 5.98 µM) and the MIC (K. pneumonia NCTC 13368) was 64 µg/mL (≈ 95.7 µM). For the same compound, the pIC50 (WI38 (Healthy cell line)) was less than 4.70 and the pIC50 [4] was less than 4.70.
